From PubChem BioAssay AID1259408 (Genetic Toxicology Data Bank (GENE-TOX), 2018) come the findings set out here.

The source made the active and inactive calls. No rule for the calls is given here.

In the data set the test system is GENE-TOX genotoxicity assays, various organisms and cells. Nature of the data set: GENE-TOX mutagenicity studies.
[1] abbreviates: Species/Cell Type: Neurospora crassa, Assay Type: Aneuploidy, chromosome aberrations, Assay Code: NEN-, Evaluation Type: Evaluation A (Pre-1980).

Take `CCOS(C)(=O)=O`: the mutagenic call runs as follows: (Species/Cell Type: Arabidopsis species, Assay Type: Gene mutation, Assay Code: ARM+D, Dose Response: With dose response, Evaluation Type: Evaluation A (Pre-1980)) “active; positive”; (Species/Cell Type: Aspergillus nidulans, Assay Type: Forward gene mutation, Assay Code: ASF+, Evaluation Type: Evaluation A (Pre-1980)) “active; positive”; (Species/Cell Type: Aspergillus nidulans, Assay Type: Reverse gene mutation, Assay Code: ASR+, Evaluation Type: Evaluation A (Pre-1980)) “active; positive”; (Species/Cell Type: Chinese hamster lung (V79) cells, Assay Type: Forward gene mutation at the HPRT or ouabain locus, Assay Code: V79+, Evaluation Type: Evaluation A (Pre-1980)) “active; positive”; (Species/Cell Type: Chinese hamster ovary (CHO) cells, Assay Type: Forward gene mutation at the HPRT locus, Assay Code: CHO+D, Dose Response: With dose response, Evaluation Type: Evaluation A (Pre-1980)) “active; positive”; (Species/Cell Type: Drosophila melanogaster, Assay Type: Sex-linked recessive lethal gene mutation, Assay Code: SRL+, Evaluation Type: Evaluation A (Pre-1980)) “active; positive”. Moreover, the mutagenic call by setting is: (Species/Cell Type: Drosophila melanogaster, Sex: Male, Assay Type: Heritable translocation test, chromosome aberrations, Assay Code: DHT+, Evaluation Type: Evaluation A (Pre-1980)) “active; positive”; (Species/Cell Type: Escherichia coli WP2, Assay Type: Tryptophan reverse gene mutation, Assay Code: WP2+, Evaluation Type: Evaluation A (Pre-1980)) “active; positive”; (Species/Cell Type: Escherichia coli WP2 UVRA, Assay Type: Tryptophan reverse gene mutation, Assay Code: WPU+, Evaluation Type: Evaluation A (Pre-1980)) “active; positive”; (Species/Cell Type: Escherichia coli polA (W3119 vs P3478), Assay Type: Rec-assay, DNA effects (bacterial DNA repair), Assay Code: RE1+, Evaluation Type: Evaluation A (Pre-1980)) “active; positive”; (Species/Cell Type: F1 mouse, Sex: Male, Assay Type: Sperm morphology, Assay Code: SPF+, Evaluation Type: Evaluation A (Pre-1980)) “active; positive”; (Species/Cell Type: Glycine max (soybean), Assay Type: Gene mutation, Assay Code: GLM+, Evaluation Type: Evaluation A (Pre-1980)) “active; positive”. The mutagenic call was “active; positive” (Species/Cell Type: Hordeum vulgare (barley), Assay Type: Chromosome aberrations, Assay Code: HOC+D, Dose Response: With dose response, Evaluation Type: Evaluation A (Pre-1980)); “active; positive” (Species/Cell Type: Hordeum vulgare (barley), Assay Type: Gene mutation, Assay Code: HOM+D, Dose Response: With dose response, Evaluation Type: Evaluation A (Pre-1980)); “active; positive” (Species/Cell Type: Human diploid fibroblasts, Assay Type: Unscheduled DNA synthesis (UDS) in vitro, DNA effects, Assay Code: UDH+D, Dose Response: With dose response, Evaluation Type: Evaluation A (Pre-1980)); “active; positive” (Species/Cell Type: Human lymphocytes, Assay Type: Micronucleus test in vitro, chromosome aberrations, Assay Code: MN7+, Evaluation Type: Evaluation A (Pre-1980)); “active; positive” (Species/Cell Type: Human lymphocytes, Assay Type: Sister-chromatid exchange (SCE) in vitro, Assay Code: SCL+, Evaluation Type: Evaluation A (Pre-1980)); “active; positive” (Species/Cell Type: Human, Assay Type: Sister-chromatid exchange (SCE) in vitro, Assay Code: SC1+D, Dose Response: With dose response, Evaluation Type: Evaluation A (Pre-1980)). For the same compound, the mutagenic call is “no conclusion” (Species/Cell Type: Mammalian germ cells, Sex: Male, Assay Type: Chromosome aberrations in vivo, Assay Code: CY9T, Evaluation Type: Evaluation A (Pre-1980)); “active; positive” (Species/Cell Type: Mammalian polychromatic erythrocytes, Assay Type: Micronucleus test, chromosome aberrations, Assay Code: MNT+, Evaluation Type: Evaluation A (Pre-1980)); “active; positive” (Species/Cell Type: Mouse germ cells, Sex: Male, Assay Type: Unscheduled DNA synthesis (UDS) in vivo, DNA effects, Assay Code: UDT+, Evaluation Type: Evaluation A (Pre-1980)); “active; positive” (Species/Cell Type: Mouse lymphoma (L5178Y) cells, Assay Type: Forward gene mutation at the thymidine kinase (TK) locus, chromosome aberrations, Assay Code: L51+, Evaluation Type: Evaluation A (Pre-1980)); “active; positive” (Species/Cell Type: Mouse, Sex: Female, Assay Type: Spot test, gene mutation, Assay Code: MST+, Evaluation Type: Evaluation A (Pre-1980)); “active; positive” (Species/Cell Type: Mouse, Sex: Male, Assay Type: Heritable translocation test, chromosome aberrations, Assay Code: HTT+D, Dose Response: With dose response, Evaluation Type: Evaluation A (Pre-1980)). In addition, the mutagenic call is, setting by setting: (Species/Cell Type: Mouse, Sex: Male, Assay Type: Specific locus test, gene mutation, Assay Code: SLT+, Evaluation Type: Evaluation A (Pre-1980)) “active; positive”; (Species/Cell Type: Mouse, Sex: Male, Assay Type: Sperm morphology, Assay Code: SPI+, Evaluation Type: Evaluation A (Pre-1980)) “active; positive”; under setting [1], “inactive; negative”; (Species/Cell Type: Neurospora crassa, Assay Type: Forward gene mutation, Assay Code: NEF+, Evaluation Type: Evaluation A (Pre-1980)) “active; positive”; (Species/Cell Type: Neurospora crassa, Assay Type: Reverse gene mutation, Assay Code: NER+, Evaluation Type: Evaluation A (Pre-1980)) “active; positive”; (Species/Cell Type: Nonhuman bone marrow, Assay Type: Chromosome aberrations, in vivo, Assay Code: CY#+, Evaluation Type: Evaluation A (Pre-1980)) “active; positive”. Besides, the mutagenic call was “active; positive” (Species/Cell Type: Nonhuman, Assay Type: Sister-chromatid exchange (SCE) in vitro, Assay Code: SC2+D, Dose Response: With dose response, Evaluation Type: Evaluation A (Pre-1980)); “active; positive” (Species/Cell Type: Nonhuman, Assay Type: Sister-chromatid exchange (SCE) in vivo, Assay Code: SC3+D, Dose Response: With dose response, Evaluation Type: Evaluation A (Pre-1980)); “inactive; negative” (Species/Cell Type: Plant, Assay Type: Micronucleus test, chromosome aberrations, Assay Code: MNP-, Evaluation Type: Evaluation A (Pre-1980)); “active; positive” (Species/Cell Type: Rodents, Sex: Male, Assay Type: Dominant lethal test, Assay Code: DLT+D, Dose Response: With dose response, Evaluation Type: Evaluation A (Pre-1980)); “active; positive” (Species/Cell Type: Saccharomyces cerevisiae, Assay Type: Aneuploidy, chromosome aberrations, Assay Code: YEN+, Evaluation Type: Evaluation A (Pre-1980)); “active; positive” (Species/Cell Type: Saccharomyces cerevisiae, Assay Type: Forward gene mutation, Assay Code: YEF+, Evaluation Type: Evaluation A (Pre-1980)). For the same compound, the mutagenic call by setting is: (Species/Cell Type: Saccharomyces cerevisiae, Assay Type: Mitotic recombination or gene conversion, Assay Code: YEC+, Evaluation Type: Evaluation A (Pre-1980)) “active; positive”; (Species/Cell Type: Saccharomyces cerevisiae, Assay Type: Mitotic recombination or gene conversion, Assay Code: YEH+, Evaluation Type: Evaluation A (Pre-1980)) “active; positive”; (Species/Cell Type: Saccharomyces cerevisiae, Assay Type: Reverse gene mutation, Assay Code: YER+, Evaluation Type: Evaluation A (Pre-1980)) “active; positive”; (Species/Cell Type: Salmonella typhimurium (one or more of the five standard strains: TA98, TA100, TA1535, TA1537, and TA1538), Assay Type: Histidine reverse gene mutation, Ames assay, Assay Code: SAL+, Evaluation Type: Evaluation A (Pre-1980)) “active; positive”; (Species/Cell Type: Salmonella typhimurium, Escherichia coli, Serratia marcesens, Neurospora crassa, Saccharomyces cerevisiae, Chinese hamst, Assay Type: Forward and reverse gene mutation, lethal mutation, mitotic recombination and gene conversion, DNA effects, host-mediate, Assay Code: HM8+, Evaluation Type: Evaluation A (Pre-1980)) “active; positive”; (Species/Cell Type: Schizosaccharomyces pombe, Assay Type: Forward gene mutation, Assay Code: YEY+, Evaluation Type: Evaluation A (Pre-1980)) “active; positive”. The mutagenic call is “active; positive” (Species/Cell Type: Schizosaccharomyces pombe, Assay Type: Reverse gene mutation, Assay Code: YEZ+, Evaluation Type: Evaluation A (Pre-1980)); “active; positive” (Species/Cell Type: Syrian hamster embryo (SA7/SHE) cells, Assay Type: Cell transformation, viral enhanced, Assay Code: CT7+, Evaluation Type: Evaluation A (Pre-1980)); “active; positive” (Species/Cell Type: Syrian hamster embryo (SHE) cells, Assay Type: Cell transformation, clonal assay, Assay Code: CTC+, Evaluation Type: Evaluation A (Pre-1980)); “active; positive” (Species/Cell Type: Syrian hamster embryo (SHE) cells, Assay Type: Cell transformation, focus assay, Assay Code: CTF+, Evaluation Type: Evaluation A (Pre-1980)); “active; positive” (Species/Cell Type: Tradescantia species, Assay Type: Chromosome aberrations, Assay Code: TRC+D, Dose Response: With dose response, Evaluation Type: Evaluation A (Pre-1980)); “active; positive” (Species/Cell Type: Tradescantia species, Assay Type: Gene mutation, Assay Code: TRM+D, Dose Response: With dose response, Evaluation Type: Evaluation A (Pre-1980)). Besides, the mutagenic call (Species/Cell Type: Vicia faba, Assay Type: Chromosome aberrations, Assay Code: VIC+D, Dose Response: With dose response, Evaluation Type: Evaluation A (Pre-1980)) is “active; positive” and the mutagenic call (Species/Cell Type: Zea mays (corn), Assay Type: Gene mutation, Assay Code: ZEM+D, Dose Response: With dose response, Evaluation Type: Evaluation A (Pre-1980)) is “active; positive”. In addition, the call (Species/Cell Type: Nonhuman, Assay Type: In vivo carcinogenicity studies, Assay Code: CCG+, Evaluation Type: Evaluation A (Pre-1980)) was “active; positive”.
In the case of `Nc1ncnc2c1ncn2[C@H]1C[C@H](O)[C@@H](CO)O1`, the mutagenic call is “inactive; negative” (Species/Cell Type: Glycine max (soybean), Assay Type: Gene mutation, Assay Code: GLM-, Evaluation Type: Evaluation A (Pre-1980)) and “no conclusion” (Species/Cell Type: Nonhuman, Assay Type: Sister-chromatid exchange (SCE) in vitro, Assay Code: SC2T, Evaluation Type: Evaluation B (Post-1980)).
Consider `Nc1cccc(O)c1`, for which the mutagenic call by setting is: (Species/Cell Type: Mammalian polychromatic erythrocytes, Assay Type: Micronucleus test, chromosome aberrations, Assay Code: MNTT, Evaluation Type: Evaluation A (Pre-1980)) “no conclusion”; under setting [1], “inactive; negative”.
With `Cc1cc2c3ccccc3ccc2c2ccccc12`, where the note is “Species/Cell Type: Salmonella typhimurium (one or more of the five standard strains: TA98, TA100, TA1535, TA1537, and TA1538), Assay Type: Histidine reverse gene mutation, Ames assay, Assay Code: SAL+*, Activation: With metabolic activation, Evaluation Type: Evaluation A (Pre-1980)”, the mutagenic call is “active; positive”.
